Residues, ends and D or L forms follow the SMILES beside them. *: point of attachment. Cbz = O=C(OCc1ccccc1)*
Columns and labels:
Assay in all cases: Kinetic parameters on synthetic peptide substrates (HPLC of hydrolysis products)
Assay type in all cases: biochemical
[1] = target: T1, B.subtilis neutral protease, wild type (PN w.t.) (Bacillus subtilis, UniProt P68736); set-up: unit not given beside the values; conditions: 37° C., 25 mM Tris-HCl, pH 7.0, 2.5 mM calcium acetate
T1 construct: made in house; host or cells: B. subtilis SMS 108 carrying pSM 127 (NRRL B-15900)
T1 sequence (P68736 222-521): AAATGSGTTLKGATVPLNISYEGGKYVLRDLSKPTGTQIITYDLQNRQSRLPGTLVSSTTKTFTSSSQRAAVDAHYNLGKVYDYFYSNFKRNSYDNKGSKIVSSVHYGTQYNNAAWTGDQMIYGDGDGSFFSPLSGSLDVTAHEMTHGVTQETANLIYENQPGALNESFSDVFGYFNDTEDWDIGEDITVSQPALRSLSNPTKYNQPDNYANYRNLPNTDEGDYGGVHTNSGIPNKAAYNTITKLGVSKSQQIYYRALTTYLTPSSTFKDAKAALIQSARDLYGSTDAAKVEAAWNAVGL
Description: (§1) The kinetic parameters Km and Kcat of wild-type neutral protease and of the three mutants were determined on Z-Phe-Leu-Ala, Z-Ala-Leu-Ala, Z-Gly-Leu-Ala and Z-Val-Leu-Ala synthetic peptide substrates (Bachem, Bubendorf, CH).
(§2) The hydrolysis reactions were carried out at 37° C. in 0.6 ml of a solution containing 25 mM Tris-HCl, pH 7.0, and 2.5 mM calcium acetate, with the use of different concentrations of the substrate (from 0.2 to 20.0 mM) and of the enzyme (from 0.04 to 5 ug/ml).
(§3) 100 μl portions were withdrawn from the reaction mixtures at various time intervals, and 100 μl of a solution of H2 O:CH3 CN:H3 PO4 in a volumetric ratio of 64:34:1 were added and the mixture centrifuged at 14,000 rpm for 5 minutes.
(§4) 20 μl of the supernatant liquid thus obtained were then loaded into a VYDAC® 218 TP S415 HPLC column (4.6×150 mm, 10 μm particles) and the hydrolysis products (Z-Phe, Z-Ala, Z-Val and Z-Gly) were separated by isocratic elution at a flow rate of 1.5 ml/minute with the use of solutions A (0.05% H3 PO4, v/v) and B (H2 O:CH3 CN:H3 PO4, 4.95:95.0:0.05 v/v) in ratios which varied according to the substrate used.
(§5) The reaction products were measured as their absorbance at 220 nm and quantised by the integration of the elution peaks with the use of the System Gold program (Beckman).
(§6) Initial velocities (vi) and maximum velocities (Vmax) Km and Kcat were then found for each of the substrates with the use of the Michaelis-Manten equation [formula]

[2] = target: T2, B.subtilis neutral protease mutant 147 (Gly 147 → Ala) (Bacillus subtilis, UniProt P68736, G369A); conditions: 147 mutant; 37° C., 25 mM Tris-HCl, pH 7.0, 2.5 mM calcium acetate
T2 construct: made in house; host or cells: B. subtilis SMS 108 carrying pSM 374 (B. subtilis SMS 263)
T2 sequence (P68736 222-521 G369A): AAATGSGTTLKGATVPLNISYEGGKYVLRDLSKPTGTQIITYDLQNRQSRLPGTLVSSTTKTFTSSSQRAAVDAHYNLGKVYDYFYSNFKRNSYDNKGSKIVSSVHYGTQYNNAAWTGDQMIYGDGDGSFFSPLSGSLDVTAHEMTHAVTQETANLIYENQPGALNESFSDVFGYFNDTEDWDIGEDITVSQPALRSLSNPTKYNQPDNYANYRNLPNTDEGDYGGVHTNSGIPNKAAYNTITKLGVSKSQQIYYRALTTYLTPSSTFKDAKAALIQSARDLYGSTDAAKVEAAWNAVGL
Description: as §1, §2, §3, §4, §5, §6

[3] = target: T3, B.subtilis neutral protease mutant 189 (Gly 189 → Ala) (Bacillus subtilis, UniProt P68736, G406A); conditions: 189 mutant; 37° C., 25 mM Tris-HCl, pH 7.0, 2.5 mM calcium acetate
T3 construct: made in house; host or cells: B. subtilis SMS 108 carrying pSM 375 (printed pSM 75; B. subtilis SMS 261)
T3 sequence (P68736 222-521 G406A): as the sequence (P68736 222-521 G369A) above, with A148G, G185A counted along it
Description: as §1, §2, §3, §4, §5, §6

[4] = target: T4, B.subtilis neutral protease double mutant 147/189 (Gly 147 → Ala, Gly 189 → Ala) (Bacillus subtilis, UniProt P68736, G369A/G406A); conditions: 147/189 mutant; 37° C., 25 mM Tris-HCl, pH 7.0, 2.5 mM calcium acetate
T4 construct: made in house; host or cells: B. subtilis SMS 108 carrying pSM 376 (B. subtilis SMS 262)
T4 sequence (P68736 222-521 G369A/G406A): as the sequence (P68736 222-521 G369A) above, with G185A counted along it
Description: as §1, §2, §3, §4, §5, §6

Structure (SMILES)	Kcat [1]	Kcat [2]	Kcat [3]	Km [3] [mM]	Kcat [4]	Km [4] [mM]	Km [2] [mM]
CC(C)C[C@H](NC(=O)[C@H](C)NC(=O)OCc1ccccc1)C(=O)N[C@@H](C)C(=O)O [Z--Ala--Leu--Ala, Z-Ala-Leu-Ala] (Cbz-Ala-Leu-Ala-OH)	3005	~3500	2694	1.53	1329	8.72	–
CC(C)C[C@H](NC(=O)CNC(=O)OCc1ccccc1)C(=O)N[C@@H](C)C(=O)O [Z--Gly--Leu--Ala, Z-Gly-Leu-Ala] (Cbz-Gly-Leu-Ala-OH)	1150	105.8	1847	2.38	186.4	4.39	35.3
CC(C)C[C@H](NC(=O)[C@H](Cc1ccccc1)NC(=O)OCc1ccccc1)C(=O)N[C@@H](C)C(=O)O [Z--Phe--Leu--Ala, Z-Phe-Leu-Ala] (Cbz-Phe-Leu-Ala-OH)	1986	1933	2139	2.53	1038	0.95	9.36
CC(C)C[C@H](NC(=O)[C@@H](NC(=O)OCc1ccccc1)C(C)C)C(=O)N[C@@H](C)C(=O)O [Z--Val--Leu--Ala, Z-Val-Leu-Ala] (Cbz-Val-Leu-Ala-OH)	6.12	3.76	13.12	0.96	7.61	6.97	24
